Reference: patent US4062944A, “Mixture of antibiotics produced by new species of micromonospora” (Pfizer Inc., priority 1976, dated 1977)
In brackets after ≈: the same amount, converted by molar mass. Read-outs that look alike come from different tables or passages of the source.

Experiments:
[1] = Antibiotic properties of hexahydro derivatives compared with parent compounds; settings: compared with the parent compound
Staphylococcus aureus = assay: Minimal inhibitory concentration, nutrient broth tube dilution, Staphylococcus aureus; assay type: cell-based
Description: (§1) These tests were run by preparing tubes of nutrient broth with gradually increasing concentrations of the pure antibiotic and then seeding the broths with the particular organism specified. […] The tests were conducted under standardized conditions as described in Proc. Soc. Exp. Biol. & Med. 122, ll07 (1966). Tables II and III illustrate the in vivo activity of these new antibiotics in experimentally infected mice.

Streptococci = assay: In vivo activity in experimentally infected mice, Streptococci (PD50); settings: Mus musculus, oral, read-out: PD50 (dose that provides 50% protection)
Description: as §1
(§2) *Dose that provides 50% protection?

Staphylococci = assay: In vivo activity in experimentally infected mice, Staphylococci (PD50); settings: Mus musculus, read-out: PD50 (dose that provides 50% protection)
Description: as §1, §2

[2] = test system: S. aureus (multi-resistant); assay: Minimal inhibitory concentration, nutrient broth tube dilution, S. aureus (multi-resistant); assay type: cell-based; settings: Staphylococcus aureus
Description: as §1

Diplococci = assay: In vivo activity in experimentally infected mice, Diplococci (PD50); settings: Mus musculus, oral, read-out: PD50 (dose that provides 50% protection)
Description: as §1, §2

M. tuber. H37Rv = assay: Minimal inhibitory concentration, nutrient broth tube dilution, M. tuberculosis; assay type: cell-based; settings: Mycobacterium tuberculosis
Description: as §1

Streptococcus pyogenes = assay: Minimal inhibitory concentration, nutrient broth tube dilution, Streptococcus pyogenes; assay type: cell-based
Description: as §1

M. tuberculosis = M. tuberculosis infection in mice, survival; assay type: in vivo; settings: evaluated at 53 days post challenge; for Percent Survival: control 20; for Average Survival Time: control 37.7
Description: as §1
M. tuberculosis Infection in Mice
*Evaluated at 53 days post challenge

hexahydro derivative of 3-methylthiorifamycin SV
antibiotic properties / antibiotic activity [1]: comparable to those of the parent compounds

hexahydro-3-methylthiorifamycin S
antibiotic properties / antibiotic activity [1]: comparable to those of the parent compounds

COC1C=COC2(C)Oc3c(C)c(O)c4c(c3C2=O)C(=O)C(SC)=C(NC(=O)C(C)=CC=CC(C)C(O)C(C)C(O)C(C)C(OC(C)=O)C1C)C4=O (stereo not shown) [3-methylthiorifamycin S]
MIC (Staphylococcus aureus): 0.4 ng/mL (≈ 0.539 nM)
ED50 (Streptococci): 0.6 mg/kg
ED50 (Staphylococci; oral): 1.4 mg/kg
ED50 (Staphylococci; sc, subcutaneous): 0.17 mg/kg
MIC [2]: 1.2 to 3.9 ng/mL (≈ 1.62 to 5.26 nM)
ED50 (Diplococci): > 12.5 mg/kg
MIC (M. tuber. H37Rv): 0.006 µg/mL (≈ 8.09 nM)
MIC (Streptococcus pyogenes): 0.9 ng/mL (≈ 1.21 nM)

COC1C=COC2(C)Oc3c(C)c(O)c4c(O)c(c(SC)c(O)c4c3C2=O)NC(=O)C(C)=CC=CC(C)C(O)C(C)C(O)C(C)C(OC(C)=O)C1C (stereo not shown) [3-methylthiorifamycin SV]
MIC (Staphylococcus aureus): 1.9 ng/mL (≈ 2.55 nM)
ED50 (Streptococci): 0.22 mg/kg
ED50 (Staphylococci; oral): 1.1 mg/kg
ED50 (Staphylococci; sc, subcutaneous): 0.65 mg/kg
MIC [2]: 1.9 to 3.9 ng/mL (≈ 2.55 to 5.24 nM)
ED50 (Diplococci): 8 mg/kg
Percent Survival (M. tuberculosis; daily dose 0.5 mg): 70%
Average Survival Time (M. tuberculosis; daily dose 0.5 mg): 44.3 days
Percent Survival (M. tuberculosis; daily dose 5.0 mg): 100%
Average Survival Time (M. tuberculosis; daily dose 5.0 mg): 53.0 days
MIC (M. tuber. H37Rv): 0.015 µg/mL (≈ 20.2 nM)
MIC (Streptococcus pyogenes): 1.9 ng/mL (≈ 2.55 nM)
